According to patent US7528138B2, “Pyrazolo[1,5-a]pyrimidines useful as inhibitors of protein kinases” (Vertex Pharmaceuticals Incorporated, priority 2004, dated 2009):

Columns and labels:
Format in all cases: biochemical
c-Met = c-Met (Homo sapiens, UniProt P08581); assay: c-Met Inhibition Assay, coupled enzyme system; conditions: enzyme inhibition data (Ki), Table 11
Method in brief: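 Pyruvate kinase/lactate dehydrogenase-coupled NADH assay in HEPES pH 7.5 with 80 nM c-Met, 200 μM ATP and 10 μM polyGluTyr at 30° C. Compound (0.006–12.5 μM final, 12-point) preincubated 10 min before ATP start; rates over 10 min gave Ki.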

Itk = biological target: T1, Itk (Homo sapiens, UniProt Q08881); assay: ITK Inhibition Assay (Radiometric), radioactive-phosphate incorporation; conditions: enzyme inhibition data (Ki), Table 11; radiometric or UV assay not stated
T1 sequence (Q08881 1-620): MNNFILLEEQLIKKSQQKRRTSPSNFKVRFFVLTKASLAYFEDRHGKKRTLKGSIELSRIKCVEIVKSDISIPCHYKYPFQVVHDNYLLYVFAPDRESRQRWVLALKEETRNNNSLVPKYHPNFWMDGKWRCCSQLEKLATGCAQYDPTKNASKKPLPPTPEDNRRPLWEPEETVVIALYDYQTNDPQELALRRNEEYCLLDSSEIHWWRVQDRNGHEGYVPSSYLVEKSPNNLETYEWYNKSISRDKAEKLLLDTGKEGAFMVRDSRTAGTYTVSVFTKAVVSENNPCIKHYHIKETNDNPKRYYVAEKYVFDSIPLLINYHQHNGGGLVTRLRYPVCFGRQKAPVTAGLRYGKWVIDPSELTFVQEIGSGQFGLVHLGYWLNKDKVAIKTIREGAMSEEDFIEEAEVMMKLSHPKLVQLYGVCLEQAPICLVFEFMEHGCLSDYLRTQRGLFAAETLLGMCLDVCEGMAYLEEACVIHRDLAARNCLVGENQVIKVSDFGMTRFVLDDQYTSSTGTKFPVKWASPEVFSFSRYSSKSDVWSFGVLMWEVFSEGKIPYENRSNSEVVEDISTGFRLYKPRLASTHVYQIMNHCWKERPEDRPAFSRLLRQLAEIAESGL
Method in brief: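 Radiometric 33P incorporation into SAM68 peptide (D332-443) with filter capture and scintillation counting; 10 min pre-incubation then 10 min reaction at 25° C. IC50 format: 30 nM Itk, 15 μM ATP, 2 μM peptide, HEPES pH 7.5. Ki(app) format: 50 nM Itk, 7.5 μM ATP, 3 μM peptide, MOPS pH 7.0.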

JAK3 = biological target: T2, JAK3 (Homo sapiens, UniProt P52333); assay: JAK3 Inhibition Assay, 33P incorporation; conditions: enzyme inhibition data (Ki), Table 11
T2 sequence (P52333 1-1124): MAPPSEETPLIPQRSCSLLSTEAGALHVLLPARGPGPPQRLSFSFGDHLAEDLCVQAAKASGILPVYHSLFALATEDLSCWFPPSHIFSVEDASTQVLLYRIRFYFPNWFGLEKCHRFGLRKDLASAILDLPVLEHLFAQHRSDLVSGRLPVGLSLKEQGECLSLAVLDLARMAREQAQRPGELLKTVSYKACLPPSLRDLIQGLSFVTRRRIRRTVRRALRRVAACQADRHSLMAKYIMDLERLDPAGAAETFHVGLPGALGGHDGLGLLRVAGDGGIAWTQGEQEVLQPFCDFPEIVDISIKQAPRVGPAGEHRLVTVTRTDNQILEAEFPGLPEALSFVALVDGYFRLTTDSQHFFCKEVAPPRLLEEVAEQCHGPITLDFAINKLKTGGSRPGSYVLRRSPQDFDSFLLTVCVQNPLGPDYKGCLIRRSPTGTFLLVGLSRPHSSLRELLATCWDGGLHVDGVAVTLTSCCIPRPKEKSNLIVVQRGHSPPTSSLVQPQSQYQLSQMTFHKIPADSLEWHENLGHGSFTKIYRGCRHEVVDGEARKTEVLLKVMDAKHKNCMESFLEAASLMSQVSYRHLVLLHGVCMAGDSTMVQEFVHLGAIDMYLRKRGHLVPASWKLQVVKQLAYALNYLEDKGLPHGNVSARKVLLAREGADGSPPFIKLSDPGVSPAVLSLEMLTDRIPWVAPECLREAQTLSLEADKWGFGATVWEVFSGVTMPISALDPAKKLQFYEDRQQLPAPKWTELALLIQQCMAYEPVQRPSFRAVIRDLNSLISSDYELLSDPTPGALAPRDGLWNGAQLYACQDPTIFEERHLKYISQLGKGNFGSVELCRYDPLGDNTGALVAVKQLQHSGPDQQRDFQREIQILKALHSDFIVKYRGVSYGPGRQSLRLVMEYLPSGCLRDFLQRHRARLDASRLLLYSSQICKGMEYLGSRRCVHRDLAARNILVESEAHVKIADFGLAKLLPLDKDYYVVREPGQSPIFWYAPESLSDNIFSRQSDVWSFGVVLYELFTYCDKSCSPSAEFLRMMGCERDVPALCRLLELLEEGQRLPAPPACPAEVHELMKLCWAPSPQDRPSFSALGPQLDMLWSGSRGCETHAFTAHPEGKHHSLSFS
Method in brief: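 Recombinant JAK3 at 1 nM in HEPES pH 7.4 buffer with 10 mM MgCl2, 1 mM DTT and 0.01% BSA. Substrates were 5 μM ATP (200 uCi/μmole) and 1 μM poly(Glu)4Tyr, reacted 20 min at 25 °C. Stopped with TCA, and 33P incorporation counted on glass fiber filters.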

Sequence of c-Met (P08581 25-1390): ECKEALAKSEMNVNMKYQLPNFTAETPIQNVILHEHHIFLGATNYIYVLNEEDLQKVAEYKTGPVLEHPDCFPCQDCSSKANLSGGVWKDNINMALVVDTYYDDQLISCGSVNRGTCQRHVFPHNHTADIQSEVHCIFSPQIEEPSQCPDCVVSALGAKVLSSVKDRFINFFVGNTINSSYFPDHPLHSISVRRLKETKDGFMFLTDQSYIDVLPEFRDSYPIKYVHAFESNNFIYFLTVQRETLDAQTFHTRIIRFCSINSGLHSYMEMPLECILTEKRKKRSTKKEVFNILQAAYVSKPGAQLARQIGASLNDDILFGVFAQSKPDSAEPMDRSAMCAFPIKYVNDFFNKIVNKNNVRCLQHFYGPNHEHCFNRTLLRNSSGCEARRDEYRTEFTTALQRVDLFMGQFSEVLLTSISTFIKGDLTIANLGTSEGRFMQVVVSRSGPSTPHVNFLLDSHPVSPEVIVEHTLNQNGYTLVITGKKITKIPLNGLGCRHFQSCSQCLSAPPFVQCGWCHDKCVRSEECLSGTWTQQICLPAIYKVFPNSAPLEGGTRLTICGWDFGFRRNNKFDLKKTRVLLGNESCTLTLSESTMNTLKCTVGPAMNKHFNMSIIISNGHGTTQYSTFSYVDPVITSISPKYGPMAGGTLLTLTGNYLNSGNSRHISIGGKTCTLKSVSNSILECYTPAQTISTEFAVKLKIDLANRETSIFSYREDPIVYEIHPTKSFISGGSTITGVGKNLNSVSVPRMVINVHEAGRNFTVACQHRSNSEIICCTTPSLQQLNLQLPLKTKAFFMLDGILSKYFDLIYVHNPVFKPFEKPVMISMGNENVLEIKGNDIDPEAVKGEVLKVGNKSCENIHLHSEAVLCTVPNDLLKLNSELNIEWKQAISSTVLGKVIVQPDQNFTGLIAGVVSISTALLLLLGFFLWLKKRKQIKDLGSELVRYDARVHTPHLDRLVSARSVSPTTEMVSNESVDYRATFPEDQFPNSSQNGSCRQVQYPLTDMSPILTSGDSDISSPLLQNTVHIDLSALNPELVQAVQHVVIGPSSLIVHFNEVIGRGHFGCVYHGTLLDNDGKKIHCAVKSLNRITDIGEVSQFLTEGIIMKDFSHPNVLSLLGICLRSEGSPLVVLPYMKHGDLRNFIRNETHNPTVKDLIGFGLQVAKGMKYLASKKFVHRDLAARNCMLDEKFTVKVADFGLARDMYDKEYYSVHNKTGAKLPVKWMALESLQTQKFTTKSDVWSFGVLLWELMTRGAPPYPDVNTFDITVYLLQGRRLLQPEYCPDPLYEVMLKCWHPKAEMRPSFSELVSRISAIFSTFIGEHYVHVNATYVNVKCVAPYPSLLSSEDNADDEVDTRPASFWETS

Ki (c-Met)	Ki (Itk)	Ki (JAK3)	SMILES
< 500 nM	500 to 5000 nM	500 to 5000 nM	CC[C@H](CO)Nc1cc(-c2c(N)nn3cc(C)cnc23)ncn1 [Compound V-287]
< 500 nM	< 500 nM	500 to 5000 nM	CCC(CO)Nc1cc(-c2c(N)nn3cc(C)cnc23)ncn1 (stereo not drawn) [Compound V-288]
< 500 nM	500 to 5000 nM	500 to 5000 nM	COC[C@H](C)Nc1cc(-c2c(N)nn3cc(C)cnc23)ncn1 [Compound V-292]
< 500 nM	< 500 nM	500 to 5000 nM	Cc1cnc2c(-c3cc(N[C@@H](C)C(C)C)ncn3)c(N)nn2c1 [Compound V-296]
< 500 nM	500 to 5000 nM	500 to 5000 nM	Cc1cnc2c(-c3cc(N[C@H](C)C4CCCCC4)ncn3)c(N)nn2c1 [Compound V-297]
< 500 nM	< 500 nM	500 to 5000 nM	Cc1cnc2c(-c3cc(N[C@H](CO)CC(C)C)ncn3)c(N)nn2c1 [Compound V-298]
< 500 nM	< 500 nM	< 500 nM	Cc1cnc2c(-c3cc(N4CCCC4C)ncn3)c(N)nn2c1 (stereo not drawn) [Compound V-299]
< 500 nM	< 500 nM	500 to 5000 nM	COC[C@H]1CCCN1c1cc(-c2c(N)nn3cc(C)cnc23)ncn1 [Compound V-302]
500 to 5000 nM	500 to 5000 nM	500 to 5000 nM	Cc1cnc2c(-c3cc(N4CCC(c5ccccc5)C4)ncn3)c(N)nn2c1 (stereo not drawn) [Compound V-303]
500 to 5000 nM	500 to 5000 nM	> 5000 nM	Cc1cnc2c(-c3cc(N4CCC(CCc5ccccc5)C4)ncn3)c(N)nn2c1 (stereo not drawn) [Compound V-304]
500 to 5000 nM	500 to 5000 nM	> 5000 nM	Cc1cnc2c(-c3cc(N4CCC[C@H]4CN4CCCC4)ncn3)c(N)nn2c1 [Compound V-305]
< 500 nM	500 to 5000 nM	500 to 5000 nM	Cc1cnc2c(-c3cc(N4CCC[C@H]4CO)ncn3)c(N)nn2c1 [Compound V-306]
< 500 nM	500 to 5000 nM	500 to 5000 nM	Cc1cnc2c(-c3cc(N4CCCC4c4ccc(F)cc4)ncn3)c(N)nn2c1 (stereo not drawn) [Compound V-307]
< 500 nM	< 500 nM	< 500 nM	Cc1cnc2c(-c3cc(N4CCC(S(C)(=O)=O)C4)ncn3)c(N)nn2c1 (stereo not drawn) [Compound V-308]
< 500 nM	500 to 5000 nM	< 500 nM	Cc1cnc2c(-c3cc(N4CCCC(C(N)=O)C4)ncn3)c(N)nn2c1 (stereo not drawn) [Compound V-309]
500 to 5000 nM	500 to 5000 nM	> 5000 nM	Nc1nn2cc(CCCO)cnc2c1-c1ccccn1 [Compound V-310]
< 500 nM	500 to 5000 nM	> 5000 nM	Nc1nn2cc(CCCN3CCCC3)cnc2c1-c1ccccn1 [Compound V-311]
500 to 5000 nM	500 to 5000 nM	> 5000 nM	Nc1nn2cc(CCCN3CCCCC3)cnc2c1-c1ccccn1 [Compound V-312]
500 to 5000 nM	500 to 5000 nM	> 5000 nM	Nc1nn2cc(CCCN3CCOCC3)cnc2c1-c1ccccn1 [Compound V-313]
500 to 5000 nM	500 to 5000 nM	> 5000 nM	Nc1nn2cc(CCCN3CCNCC3)cnc2c1-c1ccccn1 [Compound V-314]
500 to 5000 nM	500 to 5000 nM	> 5000 nM	CCN1CCN(CCCc2cnc3c(-c4ccccn4)c(N)nn3c2)CC1 [Compound V-315]

Ki (c-Met)	Ki (Itk)	Ki (JAK3)	SMILES
500 to 5000 nM	500 to 5000 nM	> 5000 nM	CN(C)CCCc1cnc2c(-c3ccccn3)c(N)nn2c1 [Compound V-316]
500 to 5000 nM	500 to 5000 nM	> 5000 nM	CC(C)CN(C)CCCc1cnc2c(-c3ccccn3)c(N)nn2c1 [Compound V-317]
500 to 5000 nM	500 to 5000 nM	> 5000 nM	CCN(C)CCCc1cnc2c(-c3ccccn3)c(N)nn2c1 [Compound V-318]
< 500 nM	500 to 5000 nM	> 5000 nM	CCN(CC)CCCc1cnc2c(-c3ccccn3)c(N)nn2c1 [Compound V-319]
500 to 5000 nM	500 to 5000 nM	> 5000 nM	CC(C)N(CCCc1cnc2c(-c3ccccn3)c(N)nn2c1)C(C)C [Compound V-320]
500 to 5000 nM	500 to 5000 nM	> 5000 nM	CCN(CC)CCN(C)CCCc1cnc2c(-c3ccccn3)c(N)nn2c1 [Compound V-321]
500 to 5000 nM	500 to 5000 nM	> 5000 nM	Nc1nn2cc(CCCNC3CC3)cnc2c1-c1ccccn1 [Compound V-322]
500 to 5000 nM	500 to 5000 nM	> 5000 nM	Nc1nn2cc(CCCNC3CCCCC3)cnc2c1-c1ccccn1 [Compound V-323]
< 500 nM	500 to 5000 nM	> 5000 nM	Nc1nn2cc(CCCNC3CCC3)cnc2c1-c1ccccn1 [Compound V-324]
500 to 5000 nM	500 to 5000 nM	> 5000 nM	Nc1nn2cc(CCCN3CC[C@H](O)C3)cnc2c1-c1ccccn1 [Compound V-325]
500 to 5000 nM	500 to 5000 nM	> 5000 nM	C[C@@H](CO)NCCCc1cnc2c(-c3ccccn3)c(N)nn2c1 [Compound V-326]
500 to 5000 nM	500 to 5000 nM	> 5000 nM	CC(C)NCCCc1cnc2c(-c3ccccn3)c(N)nn2c1 [Compound V-327]
500 to 5000 nM	500 to 5000 nM	> 5000 nM	Nc1nn2cc(CCCN3CCSCC3)cnc2c1-c1ccccn1 [Compound V-328]
< 500 nM	500 to 5000 nM	> 5000 nM	Nc1nn2cc(CCCNCC3CCCO3)cnc2c1-c1ccccn1 (stereo not drawn) [Compound V-329]
500 to 5000 nM	500 to 5000 nM	> 5000 nM	CCOC(=O)C1CCCN(CCCc2cnc3c(-c4ccccn4)c(N)nn3c2)C1 (stereo not drawn) [Compound V-330]
500 to 5000 nM	500 to 5000 nM	> 5000 nM	CC(C)N1CCN(CCCc2cnc3c(-c4ccccn4)c(N)nn3c2)CC1 [Compound V-331]
< 500 nM	< 500 nM	500 to 5000 nM	Cc1cnc2c(-c3cc(NC4CCCC4)ncn3)c(N)nn2c1 [Compound V-332]
< 500 nM	< 500 nM	500 to 5000 nM	Cc1cnc2c(-c3cc(NC4CC5CCC4C5)ncn3)c(N)nn2c1 (stereo not drawn) [Compound V-333]
< 500 nM	500 to 5000 nM	500 to 5000 nM	Cc1cnc2c(-c3cc(N[C@H]4CCC[C@@H]4OCc4ccccc4)ncn3)c(N)nn2c1 [Compound V-334]
< 500 nM	500 to 5000 nM	500 to 5000 nM	Cc1cnc2c(-c3cc(N[C@@H]4CCOC4)ncn3)c(N)nn2c1 [Compound V-335]
< 500 nM	500 to 5000 nM	500 to 5000 nM	Cc1cnc2c(-c3cc(N[C@@H]4CCC[C@H]4OCc4ccccc4)ncn3)c(N)nn2c1 [Compound V-336]
